Measurements reported in US8288379B2, “Thia-triaza-cyclopentazulenes” (Boehringer Ingelheim International GmbH, priority 2009, dated 2012).

Assays:
[1] = target: T1, FRAP1 (mTOR) kinase (Homo sapiens, UniProt P42345); experiment: Inhibition of mTOR-induced p-4E-BP1 phosphorylation (TR-FRET mTOR Activity Kit; Invitrogen); type: biochemical; details: 400 nM GFP-4E-BP1 substrate, ~150 ng/mL mTOR, one hour at room temperature
T1 construct: purchased Invitrogen PV4753
Procedure, shortened: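 LanthaScreen TR-FRET: mTOR with GFP-4E-BP1 substrate in HEPES pH 7.5 buffer with 10 mM MnCl2, compound preincubated 30 min at RT, then ATP added and reacted 1 h at 20-25 °C. Stopped with EDTA plus Tb-anti-p4E-BP1 (pThr46), 1 h; GFP/Tb emission ratio over a 16-point curve, sigmoidal fit for IC50.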

[2] = system: PC-3 cells; experiment: Inhibition of proliferation: CyQuant PC-3; type: cell-based; details: 72 h; PC-3 human prostate carcinoma cells, incubated with compounds for 3 days, CyQuant NF DNA dye
Procedure, shortened: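 PC-3 proliferation read by CyQuant NF: DNA-binding dye with membrane permeabilization reagent added after medium removal, 30-60 min incubation, fluorescence at Ex 485/Em 530 nm. Proliferation judged from cell counts of drug-treated versus untreated controls.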

T1 sequence (P42345 1360-2549 limits assumed): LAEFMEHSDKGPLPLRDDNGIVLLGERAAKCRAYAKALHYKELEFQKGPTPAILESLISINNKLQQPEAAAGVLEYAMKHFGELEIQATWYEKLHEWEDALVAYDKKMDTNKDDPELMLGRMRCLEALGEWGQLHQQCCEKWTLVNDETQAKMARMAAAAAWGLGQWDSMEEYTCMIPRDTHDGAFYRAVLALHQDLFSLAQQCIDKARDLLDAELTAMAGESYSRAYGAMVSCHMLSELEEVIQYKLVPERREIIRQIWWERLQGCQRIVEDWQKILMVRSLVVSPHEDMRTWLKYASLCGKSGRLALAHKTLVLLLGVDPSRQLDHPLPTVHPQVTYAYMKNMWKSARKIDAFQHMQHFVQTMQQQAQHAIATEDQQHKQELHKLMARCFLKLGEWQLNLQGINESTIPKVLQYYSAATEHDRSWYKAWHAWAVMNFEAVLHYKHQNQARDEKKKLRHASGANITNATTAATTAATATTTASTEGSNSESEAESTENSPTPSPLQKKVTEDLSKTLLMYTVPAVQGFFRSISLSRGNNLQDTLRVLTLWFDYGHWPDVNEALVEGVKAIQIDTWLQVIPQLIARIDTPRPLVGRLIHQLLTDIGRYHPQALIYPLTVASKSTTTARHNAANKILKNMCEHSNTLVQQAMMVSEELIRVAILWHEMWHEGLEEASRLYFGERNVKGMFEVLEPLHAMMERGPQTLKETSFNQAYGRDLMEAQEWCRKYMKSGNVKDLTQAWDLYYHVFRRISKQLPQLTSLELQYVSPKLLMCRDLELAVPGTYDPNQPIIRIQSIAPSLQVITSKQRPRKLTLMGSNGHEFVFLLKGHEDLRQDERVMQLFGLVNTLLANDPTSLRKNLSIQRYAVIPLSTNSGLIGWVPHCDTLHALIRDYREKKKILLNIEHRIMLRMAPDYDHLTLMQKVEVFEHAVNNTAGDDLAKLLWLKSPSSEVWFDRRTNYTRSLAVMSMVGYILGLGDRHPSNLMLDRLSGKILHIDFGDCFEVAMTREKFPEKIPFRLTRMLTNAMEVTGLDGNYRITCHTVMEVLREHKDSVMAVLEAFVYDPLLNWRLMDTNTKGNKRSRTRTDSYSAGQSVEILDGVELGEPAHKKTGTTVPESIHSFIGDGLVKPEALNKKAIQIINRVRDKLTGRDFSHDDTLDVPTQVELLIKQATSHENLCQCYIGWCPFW

`CC(=O)Nc1nc2c(s1)-c1c(c(-c3c[nH]cn3)nn1-c1ccccc1F)CCC2` [Example B-111, N-[1-(2-Fluoro-phenyl)-3-(1H-imidazol-4-yl)-1,4,5,6-tetrahydro-9-thia-1,2,7-triaza-cyclopenta[e]azulen-8-yl]-acetamide] was tested, and the IC50 [1] was 4 nM and the EC50 [2] was 38 nM.

For `CCNc1ccc(-c2nn(CCOC)c3c2CCCc2nc(NC(C)=O)sc2-3)cn1` [Example B-125], the IC50 [1] was 114 nM and the EC50 [2] was 253 nM.

`COCCC(=O)Nc1nc2c(s1)-c1c(c(-c3ccc(N)nc3)nn1-c1ccccc1F)CCC2` [Example E-15, N-[3-(6-Amino-pyridin-3-yl)-1-(2-fluoro-phenyl)-1,4,5,6-tetrahydro-9-thia-1,2,7-triaza-cyclopenta[e]azulen-8-yl]-3-methoxy-propionamide] gave an IC50 [1] of 47 nM and an EC50 [2] of 138 nM.

`CCNc1ccc(-c2nn(-c3ccccc3F)c3c2CCCc2nc(NC(C)=O)sc2-3)cn1` [Example B-76, N-[3-(6-Ethylamino-pyridin-3-yl)-1-(2-fluoro-phenyl)-1,4,5,6-tetrahydro-9-thia-1,2,7-triaza-cyclopenta[e]azulen-8-yl]-acetamide] showed an IC50 [1] of 31 nM and an EC50 [2] of 79 nM.

`CCNc1ccc(-c2nn(C(C)C)c3c2CCCc2nc(NC(C)=O)sc2-3)cn1` [Example B-01, N-[3-(6-Ethylamino-pyridin-3-yl)-1-isopropyl-1,4,5,6-tetrahydro-9-thia-1,2,7-triaza-cyclopenta[e]azulen-8-yl]-acetamide] showed an IC50 [1] of 151 nM and an EC50 [2] of 308 nM.

`CN(C)C(=O)Nc1nc2c(s1)-c1c(c(-c3ccc(N)nc3)nn1C1CCN(C3CC3)CC1)CCC2` [Example B-49, 3-[3-(6-Amino-pyridin-3-yl)-1-(1-cyclopropyl-piperidin-4-yl)-1,4,5,6-tetrahydro-9-thia-1,2,7-triaza-cyclopenta[e]azulen-8-yl]-1,1-dimethyl-urea] was tested, and the IC50 [1] was 41 nM and the EC50 [2] was 156 nM.

`CC(=O)Nc1nc2c(s1)-c1c(c(-c3ccc(C)nc3)nn1-c1ccccc1F)CCC2` [Example B-17, N-[1-(2-Fluoro-phenyl)-3-(6-methyl-pyridin-3-yl)-1,4,5,6-tetrahydro-9-thia-1,2,7-triaza-cyclopenta[e]azulen-8-yl]-acetamide] was tested, and the IC50 [1] was 53 nM and the EC50 [2] was 114 nM.

`CC(=O)Nc1nc2c(s1)-c1c(c(-c3ccc(C)nc3)nn1-c1cccnc1C)CCC2` [Example B-137, N-[1-(2-Methyl-pyridin-3-yl)-3-(6-methyl-pyridin-3-yl)-1,4,5,6-tetrahydro-9-thia-1,2,7-triaza-cyclopent[e]azulen-8-yl]acetamide] was tested, and the IC50 [1] was 422 nM and the EC50 [2] was 1240 nM.

Work on `CC(=O)Nc1nc2c(s1)-c1c(c(-c3ccc(C)nc3)nn1-c1ccncc1C)CCC2` [Example B-90] yielded an IC50 [1] of 118 nM and an EC50 [2] of 422 nM.

`CNC(=O)Nc1nc2c(s1)-c1c(c(-c3ccc(NC)nc3)nn1-c1cccnc1C)CCC2` [Example B-143, 1-Methyl-3-[3-(6-methylamino-pyridin-3-yl)-1-(2-methyl-pyridin-3-yl)-1,4,5,6-tetrahydro-9-thia-1,2,7-triaza-cyclopent[e]azulen-8-yl]-urea] gave an IC50 [1] of 71 nM and an EC50 [2] of 424 nM.

`CCNc1ccc(-c2nn(-c3ccncc3C)c3c2CCCc2nc(NC(C)=O)sc2-3)cn1` [Example B-77, N-[3-(6-Ethylamino-pyridin-3-yl)-1-(3-methyl-pyridin-4-yl)-1,4,5,6-tetrahydro-9-thia-1,2,7-triaza-cyclopenta[e]azulen-8-yl]-acetamide] gave an IC50 [1] of 34 nM and an EC50 [2] of 126 nM.

Molecule `CN(C)CCCC(=O)Nc1nc2c(s1)-c1c(c(-c3ccc(N)nc3)nn1-c1ccccc1F)CCC2` [Example E-16, N-[3-(6-Amino-pyridin-3-yl)-1-(2-fluoro-phenyl)-1,4,5,6-tetrahydro-9-thia-1,2,7-triaza-cyclopenta[e]azulen-8-yl]-4-dimethylamino-butyramide] has an IC50 [1] of 13 nM and an EC50 [2] of 32 nM.

`CNc1ccc(-c2nn(-c3cccnc3C)c3c2CCCc2nc(NC(C)=O)sc2-3)cn1` [Example B-139, N-[3-(6-Methylamino-pyridin-3-yl)-1-(2-methyl-pyridin-3-yl)-1,4,5,6-tetrahydro-9-thia-1,2,7-triaza-cyclopent[e]azulen-8-yl]acetamide] was tested, and the IC50 [1] was 21 nM and the EC50 [2] was 71 nM.

`CNc1ccc(-c2nn(C3CCN(C)CC3)c3c2CCCc2nc(NC(=O)N(C)C)sc2-3)cn1` [Example B-56] showed an IC50 [1] of 379 nM and an EC50 [2] of 579 nM.

Work on `CCn1nc(-c2ccc(N)nc2)c2c1-c1sc(NC(C)=O)nc1CCC2` [Example B-130, N-[3-(6-Amino-pyridin-3-yl)-1-ethyl-1,4,5,6-tetrahydro-9-thia-1,2,7-triaza-cyclopenta[e]azulen-8-yl]-acetamide] yielded an IC50 [1] of 19 nM and an EC50 [2] of 178 nM.

With `CC(=O)Nc1nc2c(s1)-c1c(c(-c3c[nH]c(C)n3)nn1CC(C)C)CCC2` [Example B-121, N-[1-Isobutyl-3-(2-methyl-1H-imidazol-4-yl)-1,4,5,6-tetrahydro-9-thia-1,2,7-triaza-cyclopenta[e]azulen-8-yl]-acetamide] the IC50 [1] was 35 nM and the EC50 [2] was 73 nM.

`CC(=O)Nc1nc2c(s1)-c1c(c(-c3ccc(N)nc3)nn1C1CCCOC1)CCC2` (stereo not drawn) [Example B-65, N-[3-(6-Amino-pyridin-3-yl)-1-(tetrahydro-pyran-3-yl)-1,4,5,6-tetrahydro-9-thia-1,2,7-triaza-cyclopenta[e]azulen-8-yl]-acetamide] was tested, and the IC50 [1] was 13 nM and the EC50 [2] was 75 nM.

For `CN(C)C(=O)Nc1nc2c(s1)-c1c(c(-c3ccc(N)nc3)nn1-c1ccccc1)CCC2` [Example B-96, 3-[3-(6-Amino-pyridin-3-yl)-1-phenyl-1,4,5,6-tetrahydro-9-thia-1,2,7-triaza-cyclopenta[e]azulen-8-yl]-1,1-dimethyl-urea], the IC50 [1] was 67 nM and the EC50 [2] was 289 nM.

`CNc1ccc(-c2nn(CCOC)c3c2CCCc2nc(NC(C)=O)sc2-3)cn1` [Example B-03, N-[1-(2-Methoxy-ethyl)-3-(6-methylamino-pyridin-3-yl)-1,4,5,6-tetrahydro-9-thia-1,2,7-triaza-cyclopenta[e]azulen-8-yl]-acetamide] showed an IC50 [1] of 87 nM and an EC50 [2] of 263 nM.

For `CC(=O)Nc1nc2c(s1)-c1c(c(-c3c[nH]cn3)nn1-c1ccc(C(=O)N(C)C)cc1Cl)CCC2` [Example B-114], the IC50 [1] was 4 nM and the EC50 [2] was 382 nM.

In the case of `CC(=O)Nc1nc2c(s1)-c1c(c(-c3ccc(N)nc3)nn1-c1cccnc1C)CCC2` [Example B-138, N-[3-(6-Amino-pyridin-3-yl)-1-(2-methyl-pyridin-3-yl)-1,4,5,6-tetrahydro-9-thia-1,2,7-triaza-cyclopent[e]azulen-8-yl]acetamide], the IC50 [1] is reported as 38 nM and the EC50 [2] is reported as 236 nM.

Work on `CNc1ccc(-c2nn(CCN3CCOCC3)c3c2CCCc2nc(NC(C)=O)sc2-3)cn1` [Example B-82, N-[3-(6-Methylamino-pyridin-3-yl)-1-(2-morpholin-4-yl-ethyl)-1,4,5,6-tetrahydro-9-thia-1,2,7-triaza-cyclopenta[e]azulen-8-yl]-acetamide] yielded an IC50 [1] of 33 nM and an EC50 [2] of 49 nM.

In the case of `CC(=O)Nc1nc2c(s1)-c1c(c(-c3ccc(N)nc3)nn1-c1ccccc1Br)CCC2` [Example B-63, N-[3-(6-Amino-pyridin-3-yl)-1-(2-bromo-phenyl)-1,4,5,6-tetrahydro-9-thia-1,2,7-triaza-cyclopenta[e]azulen-8-yl]-acetamide], the IC50 [1] is reported as 27 nM and the EC50 [2] is reported as 143 nM.

`CCCn1nc(-c2ccc(N)nc2)c2c1-c1sc(NC(=O)N(C)C)nc1CCC2` [Example B-33] showed an IC50 [1] of 116 nM and an EC50 [2] of 310 nM.
